One experiment deals with Acetylcholinesterase (Electrophorus electricus, UniProt O42275). As to the kind of experiment: Inhibition of Electrophorus electricus AChE using ATCI as substrate pre-incubated for 10 mins followed by substrate addition measured after 5 mins by microplate reader analysis.
The target of a further experiment is Cholinesterase (Equus caballus, UniProt P81908). As to the kind of experiment: Inhibition of equine serum BuChE using BTCI as substrate pre-incubated for 10 mins followed by substrate addition measured after 5 mins by microplate reader analysis.
The subject of a further experiment is SH-SY5Y. As to the kind of experiment: Neuroprotective activity against human SH-SY5Y cells assessed as increase in BDNF level at 20 uM measured after 48 hrs relative to control. The class given is functional.
The target of experiment [1] is T1, D(2) dopamine receptor (Homo sapiens, UniProt P14416). As to the kind of experiment: Antagonist activity at D2R (unknown origin). Format: functional.
Another experiment concerns the target D(1A) dopamine receptor (Homo sapiens, UniProt P21728). Kind of experiment: Antagonist activity at D1R (unknown origin) transfected in HEK293 cells by FLIPR assay.
The target in experiment [2] is T2, 5-hydroxytryptamine receptor 2C (Homo sapiens, UniProt P28335).
T2 sequence (P28335 whole entry): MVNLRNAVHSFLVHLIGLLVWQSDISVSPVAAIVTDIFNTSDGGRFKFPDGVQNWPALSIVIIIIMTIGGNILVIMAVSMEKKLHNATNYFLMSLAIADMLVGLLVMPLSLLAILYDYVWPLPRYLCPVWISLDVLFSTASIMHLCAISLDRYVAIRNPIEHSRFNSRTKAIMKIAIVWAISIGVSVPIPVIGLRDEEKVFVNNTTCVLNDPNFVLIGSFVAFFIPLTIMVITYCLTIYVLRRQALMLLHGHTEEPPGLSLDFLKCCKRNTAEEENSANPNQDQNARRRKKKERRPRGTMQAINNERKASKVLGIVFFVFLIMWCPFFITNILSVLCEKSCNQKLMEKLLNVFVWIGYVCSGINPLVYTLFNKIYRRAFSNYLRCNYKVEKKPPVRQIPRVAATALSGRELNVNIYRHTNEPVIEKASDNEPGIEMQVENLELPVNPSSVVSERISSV
As to the kind of experiment: Partial agonist activity at human 5-HT2C stably transfected in HEK293T cells measured after 18 to 24 hrs by FLIPR assay. Format: functional, cell-based.

A further experiment concerns BV-2. Kind of experiment: Inhibition of NO production in LPS-induced mouse BV-2 cells incubated for 24 hrs by Griess reagent based microplate reader analysis. As to conditions: BV-2, 24 h. The class given is functional, cell-based. A general note: Nitrite, measured by Griess reagent, commonly stands in for NO production.
Experiment [3] has as its target 5-hydroxytryptamine receptor 7 (Homo sapiens, UniProt P34969). Kind of experiment: Inverse agonist activity at 5-HT7 (unknown origin). The class given is functional.
Experiment [4] deals with T1, D(2) dopamine receptor. Kind of experiment: Partial agonist activity at D2R (unknown origin) expressed in HEK293 cells relative to control. The class given is functional, cell-based. The note with it: filed as partial agonist.
Experiment [5] concerns the target T2, 5-hydroxytryptamine receptor 2C. Kind of experiment: Antagonist activity at 5-HT2C (unknown origin). Format: functional.
The target of experiment [6] is T3, 5-hydroxytryptamine receptor 2A (Homo sapiens, UniProt P28223). Kind of experiment: Inverse agonist activity at 5-HT2A (unknown origin). Format: functional.
Experiment [7] concerns the target T4, 5-hydroxytryptamine receptor 2C (Homo sapiens) (UniProt P28335).
T4 sequence (whole entry): T2 sequence (P28335 whole entry)
Kind of experiment: Agonist activity at 5-HT2C (unknown origin) relative to control. The note with it: filed as agonist. Format: functional.

In experiment [8] the target is T2, 5-hydroxytryptamine receptor 2C. As to the kind of experiment: Agonist activity at 5-HT2C (unknown origin). The class given is functional.
For experiment [9], the target named is T3, 5-hydroxytryptamine receptor 2A. Kind of experiment: Binding affinity to human 5-HT2A transfected in HEK293 cells assessed as antagonist dissociation constant measured after 1 hrs. Format: cell-based. The note with it: filed as antagonist.
Experiment [10] concerns the target T5, Alpha-1A adrenergic receptor (Homo sapiens) (UniProt P35348).
T5 sequence (whole entry): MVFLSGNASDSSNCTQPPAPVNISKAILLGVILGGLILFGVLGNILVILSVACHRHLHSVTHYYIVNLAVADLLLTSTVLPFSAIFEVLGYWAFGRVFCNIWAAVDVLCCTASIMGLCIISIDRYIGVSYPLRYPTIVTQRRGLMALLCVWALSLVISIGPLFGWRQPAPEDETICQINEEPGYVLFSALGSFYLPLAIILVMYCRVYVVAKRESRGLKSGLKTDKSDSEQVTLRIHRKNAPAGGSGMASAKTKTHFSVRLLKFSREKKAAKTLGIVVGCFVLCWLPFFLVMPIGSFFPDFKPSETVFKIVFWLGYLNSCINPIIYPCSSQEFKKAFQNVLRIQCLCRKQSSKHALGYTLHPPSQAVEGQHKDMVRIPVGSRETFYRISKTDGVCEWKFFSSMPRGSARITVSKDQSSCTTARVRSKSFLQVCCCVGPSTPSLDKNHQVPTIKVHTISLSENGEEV
Kind of experiment: Binding affinity to human alpha1A adrenergic receptors transfected in HEK293 cells assessed as antagonist dissociation constant measured after 1 hrs. Format: cell-based. As to conditions: filed as antagonist.

Experiment [11] has as its target T6, Alpha-1D adrenergic receptor (Homo sapiens) (UniProt P25100).
T6 sequence (whole entry): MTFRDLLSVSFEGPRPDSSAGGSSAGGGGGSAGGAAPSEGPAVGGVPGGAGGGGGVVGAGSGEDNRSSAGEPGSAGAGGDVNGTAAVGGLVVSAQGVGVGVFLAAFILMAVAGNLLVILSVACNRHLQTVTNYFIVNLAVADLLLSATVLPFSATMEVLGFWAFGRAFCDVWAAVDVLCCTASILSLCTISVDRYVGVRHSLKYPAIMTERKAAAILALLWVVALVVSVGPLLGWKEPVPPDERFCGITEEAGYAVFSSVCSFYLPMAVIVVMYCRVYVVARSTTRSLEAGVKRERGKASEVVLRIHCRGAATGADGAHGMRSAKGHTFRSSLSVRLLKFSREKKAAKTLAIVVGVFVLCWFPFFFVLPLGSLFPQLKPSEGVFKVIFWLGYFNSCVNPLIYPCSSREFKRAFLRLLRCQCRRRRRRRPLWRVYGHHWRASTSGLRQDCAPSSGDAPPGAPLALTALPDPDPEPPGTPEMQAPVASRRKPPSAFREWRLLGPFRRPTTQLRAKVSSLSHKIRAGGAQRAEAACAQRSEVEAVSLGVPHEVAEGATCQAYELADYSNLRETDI
Kind of experiment: Binding affinity to human alpha1D adrenergic receptors transfected in HEK293 cells assessed as antagonist dissociation constant measured after 1 hrs. The class given is cell-based. The note with it: filed as antagonist.

Experiment [12] concerns the target T7, Alpha-1B adrenergic receptor (Homo sapiens) (UniProt P35368).
T7 sequence (whole entry): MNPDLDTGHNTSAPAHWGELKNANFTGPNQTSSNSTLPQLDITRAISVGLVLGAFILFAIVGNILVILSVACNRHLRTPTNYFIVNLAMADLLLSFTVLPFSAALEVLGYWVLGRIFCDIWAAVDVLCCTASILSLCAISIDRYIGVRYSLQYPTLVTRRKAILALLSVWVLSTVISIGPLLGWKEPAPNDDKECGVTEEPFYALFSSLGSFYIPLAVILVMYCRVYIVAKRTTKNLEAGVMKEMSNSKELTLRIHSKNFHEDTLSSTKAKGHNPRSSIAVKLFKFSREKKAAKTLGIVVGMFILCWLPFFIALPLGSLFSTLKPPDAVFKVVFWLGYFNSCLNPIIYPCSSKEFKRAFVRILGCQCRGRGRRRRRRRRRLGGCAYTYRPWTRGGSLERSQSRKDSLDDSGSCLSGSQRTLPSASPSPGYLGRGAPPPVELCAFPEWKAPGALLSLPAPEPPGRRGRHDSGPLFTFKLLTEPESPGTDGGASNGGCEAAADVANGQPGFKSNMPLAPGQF
As to the kind of experiment: Binding affinity to human alpha1B adrenergic receptors transfected in HEK293 cells assessed as antagonist dissociation constant measured after 1 hrs. As to conditions: filed as antagonist. Format: cell-based.

Experiment [13] deals with 5-hydroxytryptamine receptor 2B (Homo sapiens, UniProt P41595). Kind of experiment: Binding affinity to human 5-HT2B transfected in HEK293 cells assessed as antagonist dissociation constant measured after 1 hrs. The class given is cell-based. The note with it: filed as antagonist.
In experiment [14] the target is T4, 5-hydroxytryptamine receptor 2C (Homo sapiens). Kind of experiment: Binding affinity to human 5-HT2C transfected in HEK293 cells assessed as antagonist dissociation constant measured after 1 hrs. Format: cell-based. As to conditions: filed as antagonist.

For orientation: IC50 means the concentration that inhibits the measured activity by half. Read a high IC50 as lower potency. In general, EC50 refers to the midpoint of the concentration-response curve. A higher EC50 goes with a need for much substance. The term Emax denotes the size of the effect at its maximum, as opposed to the concentration needed. The Kb is the equilibrium dissociation constant of an antagonist, usually derived from a functional assay.

Cholinesterase, sequence (P81908 whole entry): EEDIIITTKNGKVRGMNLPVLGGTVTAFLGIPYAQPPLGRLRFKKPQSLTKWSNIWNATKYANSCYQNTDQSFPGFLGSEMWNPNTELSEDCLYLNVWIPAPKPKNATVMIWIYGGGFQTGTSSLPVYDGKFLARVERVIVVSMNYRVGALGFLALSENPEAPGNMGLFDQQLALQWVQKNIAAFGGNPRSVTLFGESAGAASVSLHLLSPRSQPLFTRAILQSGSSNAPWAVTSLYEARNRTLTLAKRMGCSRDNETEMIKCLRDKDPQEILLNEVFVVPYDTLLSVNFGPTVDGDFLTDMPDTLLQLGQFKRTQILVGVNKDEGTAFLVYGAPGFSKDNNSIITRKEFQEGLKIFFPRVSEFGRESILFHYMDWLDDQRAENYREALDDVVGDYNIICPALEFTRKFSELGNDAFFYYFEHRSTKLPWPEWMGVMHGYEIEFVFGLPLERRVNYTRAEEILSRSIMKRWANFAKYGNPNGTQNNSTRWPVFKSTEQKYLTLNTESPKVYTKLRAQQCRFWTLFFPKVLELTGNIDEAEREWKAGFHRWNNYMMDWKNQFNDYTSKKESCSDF
Acetylcholinesterase, sequence (O42275 whole entry): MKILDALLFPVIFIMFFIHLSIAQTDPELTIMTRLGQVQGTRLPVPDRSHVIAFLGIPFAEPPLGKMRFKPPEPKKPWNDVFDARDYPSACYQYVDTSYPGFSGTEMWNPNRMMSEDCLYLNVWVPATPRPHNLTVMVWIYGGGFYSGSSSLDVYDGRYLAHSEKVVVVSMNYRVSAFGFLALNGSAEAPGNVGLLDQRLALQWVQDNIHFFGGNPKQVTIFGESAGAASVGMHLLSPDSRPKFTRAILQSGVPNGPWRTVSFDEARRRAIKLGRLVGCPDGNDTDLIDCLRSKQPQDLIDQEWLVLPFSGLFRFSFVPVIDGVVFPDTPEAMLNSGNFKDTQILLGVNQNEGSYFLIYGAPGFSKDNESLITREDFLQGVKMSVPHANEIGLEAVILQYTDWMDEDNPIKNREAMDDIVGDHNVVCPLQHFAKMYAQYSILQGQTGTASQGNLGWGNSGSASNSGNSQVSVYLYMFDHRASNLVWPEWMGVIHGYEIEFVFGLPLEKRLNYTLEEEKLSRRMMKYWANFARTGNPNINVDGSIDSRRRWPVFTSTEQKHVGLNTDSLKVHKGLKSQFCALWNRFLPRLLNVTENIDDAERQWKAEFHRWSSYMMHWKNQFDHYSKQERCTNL
T1 sequence (P14416 whole entry): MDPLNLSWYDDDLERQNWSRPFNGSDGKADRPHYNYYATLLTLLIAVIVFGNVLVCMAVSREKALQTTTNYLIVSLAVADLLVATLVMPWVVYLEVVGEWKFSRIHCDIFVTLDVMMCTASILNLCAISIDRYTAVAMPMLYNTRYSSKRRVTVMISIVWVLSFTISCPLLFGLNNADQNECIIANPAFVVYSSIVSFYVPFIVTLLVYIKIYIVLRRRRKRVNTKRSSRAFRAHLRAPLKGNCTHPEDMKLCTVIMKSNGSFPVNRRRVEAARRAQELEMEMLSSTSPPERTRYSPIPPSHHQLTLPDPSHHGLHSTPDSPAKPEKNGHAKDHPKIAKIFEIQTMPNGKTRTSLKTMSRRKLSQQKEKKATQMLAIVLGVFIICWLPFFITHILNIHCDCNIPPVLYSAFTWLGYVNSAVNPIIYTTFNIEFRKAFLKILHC
T3 sequence (P28223 whole entry): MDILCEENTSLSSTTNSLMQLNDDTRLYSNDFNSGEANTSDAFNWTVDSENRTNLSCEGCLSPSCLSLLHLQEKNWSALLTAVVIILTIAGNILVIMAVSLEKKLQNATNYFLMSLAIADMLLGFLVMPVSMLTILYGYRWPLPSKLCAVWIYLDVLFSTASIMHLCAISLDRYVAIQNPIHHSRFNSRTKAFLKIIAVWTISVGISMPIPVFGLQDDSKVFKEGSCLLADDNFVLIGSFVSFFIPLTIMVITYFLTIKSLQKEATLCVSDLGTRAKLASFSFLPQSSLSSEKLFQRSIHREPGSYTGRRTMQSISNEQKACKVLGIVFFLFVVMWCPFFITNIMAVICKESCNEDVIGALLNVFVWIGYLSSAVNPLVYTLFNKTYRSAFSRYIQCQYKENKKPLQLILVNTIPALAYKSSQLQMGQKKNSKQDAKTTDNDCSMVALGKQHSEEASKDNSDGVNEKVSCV
D(1A) dopamine receptor, sequence (P21728 whole entry): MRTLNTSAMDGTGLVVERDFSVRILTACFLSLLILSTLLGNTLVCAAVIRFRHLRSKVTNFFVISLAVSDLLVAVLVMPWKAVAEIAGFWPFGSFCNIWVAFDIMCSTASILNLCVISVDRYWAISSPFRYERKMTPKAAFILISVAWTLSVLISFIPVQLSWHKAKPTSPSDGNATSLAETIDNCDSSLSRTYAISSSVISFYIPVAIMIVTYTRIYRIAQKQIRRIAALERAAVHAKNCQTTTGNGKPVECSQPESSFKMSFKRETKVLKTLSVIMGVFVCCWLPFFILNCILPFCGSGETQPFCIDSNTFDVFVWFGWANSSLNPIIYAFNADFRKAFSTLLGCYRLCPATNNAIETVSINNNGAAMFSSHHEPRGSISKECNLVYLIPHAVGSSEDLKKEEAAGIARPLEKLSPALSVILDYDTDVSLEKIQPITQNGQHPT
5-hydroxytryptamine receptor 2B, sequence (P41595 whole entry): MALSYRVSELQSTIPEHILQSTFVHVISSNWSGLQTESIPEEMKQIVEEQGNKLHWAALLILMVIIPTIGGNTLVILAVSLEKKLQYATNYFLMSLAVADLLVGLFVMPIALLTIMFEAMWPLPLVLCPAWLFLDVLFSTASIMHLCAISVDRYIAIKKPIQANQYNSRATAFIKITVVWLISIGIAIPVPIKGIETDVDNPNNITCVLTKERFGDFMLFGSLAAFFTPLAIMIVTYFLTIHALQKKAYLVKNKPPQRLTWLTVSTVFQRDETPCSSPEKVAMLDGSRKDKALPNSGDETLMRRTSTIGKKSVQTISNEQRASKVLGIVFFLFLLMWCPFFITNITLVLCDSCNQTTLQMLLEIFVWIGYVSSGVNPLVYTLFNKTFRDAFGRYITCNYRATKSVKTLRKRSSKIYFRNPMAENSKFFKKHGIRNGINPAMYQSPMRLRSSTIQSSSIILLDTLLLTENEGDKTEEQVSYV
5-hydroxytryptamine receptor 7, sequence (P34969 whole entry): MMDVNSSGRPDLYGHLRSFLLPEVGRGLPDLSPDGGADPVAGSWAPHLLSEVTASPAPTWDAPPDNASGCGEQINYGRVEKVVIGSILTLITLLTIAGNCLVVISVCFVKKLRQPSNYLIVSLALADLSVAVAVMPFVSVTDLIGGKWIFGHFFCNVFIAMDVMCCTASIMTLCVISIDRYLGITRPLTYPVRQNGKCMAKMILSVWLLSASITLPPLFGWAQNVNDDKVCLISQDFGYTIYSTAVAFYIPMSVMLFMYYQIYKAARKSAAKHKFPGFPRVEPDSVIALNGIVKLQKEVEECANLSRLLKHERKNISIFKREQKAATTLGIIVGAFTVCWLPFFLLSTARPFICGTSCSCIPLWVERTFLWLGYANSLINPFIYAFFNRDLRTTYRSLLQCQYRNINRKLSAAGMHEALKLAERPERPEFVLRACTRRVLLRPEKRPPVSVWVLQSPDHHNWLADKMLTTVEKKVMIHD

Consider `COc1ccc2c(c1)C[C@@H]1c3c(cc4c(c3-2)OCO4)CCN1C`, for which the IC50 was determined as 11.9 µM on Acetylcholinesterase and 16.6 µM against Cholinesterase.

Consider `CN1CCc2cc3c(c4c2[C@H]1Cc1ccccc1-4)OCO3`, for which the IC50 came to 8.32 µM at Acetylcholinesterase, 18.8 µM on D(2) dopamine receptor [1] and 2.8 µM at Cholinesterase. Moreover, in the experiment on SH-SY5Y, the Activity was 73%.

Molecule `COc1cc2c3c(c1OC)-c1cc(O)ccc1C[C@H]3NCC2` had an IC50 on D(2) dopamine receptor [1] of 5.2 µM.

On to `COc1c2c3c(c4c1OCO4)-c1ccccc1C[C@H]3N(C)CC2`, for which the IC50 was found to be 39.8 µM against Acetylcholinesterase and 104 µM against Cholinesterase.

On to `COc1c(O)cc2c3c1-c1ccccc1C[C@H]3NCC2` [(-)-ASIMILOBINE], for which the IC50 at D(1A) dopamine receptor is 7.2 µM; at Acetylcholinesterase, 141 µM; on Cholinesterase, 10.1 µM. Further, in experiment [2], a half-maximal response (EC50) required 0.653 µM.

The molecule `COc1ccc2c(c1)cc1c3c(cc4c(c32)OCO4)CCN1C` registered an IC50 with BV-2 of 31.6 µM.

In the case of `CN1CCc2cc3c(c4c2c1cc1ccccc14)OCO3` [DEHYDROROEMERINE], the IC50 came out at 1.21 µM on Acetylcholinesterase, 1.3 µM in the experiment on BV-2 and 3.34 µM against Cholinesterase.

`COc1cc2c3c(c1OC)-c1ccccc1CC3N(C)CC2` (stereo not drawn) [(+/-)-NUCIFERINE] gave an EC50 in experiment [3] of 0.15 µM. On D(2) dopamine receptor [4], this molecule gave an Emax of 67%. For the same molecule, the IC50 in [5] is 0.131 µM; in [6], 0.478 µM.

For the molecule `CN1CCc2cc3c(c4c2[C@H]1[C@H](O)c1ccccc1-4)OCO3`, the 50% inhibitory concentration (IC50) against Acetylcholinesterase amounted to 17.6 µM; against Cholinesterase, 7.42 µM.

`Oc1cc2c3c(c1Cl)-c1ccccc1C[C@H]3NCC2` returned an Emax in experiment [7] of 41.6%. Moreover, in experiment [8], the midpoint of the response, the EC50, lay at 0.304 µM.

Regarding `COc1cc2c(cc1OC)-c1c3c(cc4c1[C@H](C2)N(C)CC4)OCO3` [DICENTRINE], the Kb in experiment [9] was 0.0839 µM; in [10] it was 0.163 µM; in experiment [11], 0.181 µM; in experiment [12], 0.155 µM; in experiment [13] it was 0.208 µM; in experiment [14] it was 0.776 µM. In addition, the IC50 amounted to 6.11 µM against Acetylcholinesterase and 26.4 µM against Cholinesterase.

`COc1ccc(OC)c2c1C[C@@H]1c3c(cc4c(c3-2)OCO4)CCN1C` returned an IC50 at D(2) dopamine receptor [1] of 18.3 µM. In other words, the double-digit micromolar range.

`CN(C)c1ccc(O)c2c1C[C@H]1C[C@H]3[C@H](N(C)C)C(O)=C(C(N)=O)C(=O)[C@@]3(O)C(O)=C1C2=O` [MINOCYCLINE]: the IC50 in the experiment on BV-2 came to 15.5 µM. This lies in the double-digit micromolar range.
